Assay results from patent US20080207748A1, “VITAMIN C PREPARATION” (INNOVATION LABS, INC., priority 2007, published 2008).

Experiments:
[1] = tested on: Plasma OxLDL; assay: Human plasma oxidized LDL after single oral dose; type: in vivo; settings: for Plasma OxLDL Change: 0 vs 24 hrs
Experimental: (§1) The human serum vitamin C, plasma C-reactive protein, oxidized LDL, and urine uric and oxalate levels were determined for the formulation of Example 1 and other vitamin C formulations.
(§2) Healthy volunteers maintained a low vitamin C diet for 14 days. […] Blood samples were collected immediately prior to the oral dose administration and at various time points post ingestion. Urine was collected over a 24-hour time period and saved for oxalate and uric acid assays. Serum vitamin C levels were measured by HPLC with coulometric electrochemical detection. Plasma C-reactive protein and oxidized LDL were measured by enzyme linked immunosorbent assay (ELISA) and urine uric acid and oxalate levels were measured by enzymatic methods.

[2] = tested on: human T-lymphoblastic H9 cell line; assay: Inhibition of PHA- or bifenthrin-induced homotypic T-lymphocyte aggregation; type: cell-based; settings: H9 cells, 0.5 μM vitamin C form, 30 minutes at 37° C.; for homotypic aggregation (aggregate size), activator: None: no activator
Experimental: The ability to inhibit pesticide-induced T-lymphocyte aggregation was determined for the formulation of Example 1 and other vitamin C formulations.
The human T-lymphoblastic H9 cell line was incubated with vehicle (-) or with one of two activators of T-lymphocyte aggregation, phytohemagglutinin (PHA; […]) or bifenthrin ([…]). […] After treatment, the ability of each formulation to inhibit homotypic aggregation was measured by counting aggregate size at 400× magnification.

[3] = tested on: H9 cells, a human T-cell line; assay: Vitamin C absorption (uptake) in H9 cells; type: cell-based; settings: 50 μM
Experimental: The rate of vitamin C absorption in H9 cells, a human T-cell line, was determined for the formulation of Example 1 and other vitamin C formulations.
At the times indicated in FIG. 1, cells were harvested and measured for vitamin C and protein content. The cellular vitamin C levels of the cells were measured using the 2,4-dinitrophenylhydrazine spectrophotometric technique (Bessey et al., 1947).

[4] = tested on: Plasma C-Reactive Protein; assay: Human plasma C-reactive protein after single oral dose; type: in vivo; settings: for Plasma C-Reactive Protein Change: 0 vs 24 hrs
Experimental: as §1, §2

[5] = Human urine uric acid after single oral dose; type: in vivo; settings: single oral dose 1000 mg, urine collected over 24 hours
Experimental: as §1, §2

[6] = Human urine oxalate after single oral dose; type: in vivo; settings: single oral dose 1000 mg, urine collected over 24 hours
Experimental: as §1, §2

[7] = Human serum vitamin C levels after single oral dose; type: in vivo
Experimental: as §1, §2

[8] = 0 hrs (immediately prior to oral dose)
[9] = single oral dose 1000 mg, 24 hrs

cellular vitamin C levels (peak) ([3]; at approximately two hours) [nmol/mg protein]	cellular vitamin C levels ([3]; at fifteen minutes) [nmol/mg protein]	Molecule	Plasma OxLDL Change [1] [U/ml]	homotypic aggregation (aggregate size), activator: PHA [2]	homotypic aggregation (aggregate size), activator: Bifenthrin [2]	homotypic aggregation (aggregate size), activator: None [2]	Plasma C-Reactive Protein [4, 8] [ng/mL]	Plasma C-Reactive Protein Change [4] [ng/mL]	Plasma C-Reactive Protein [4, 9] [ng/mL]	Urine Markers: Uric Acid [5] [mg/dL]	Plasma OxLDL [1, 8] [U/ml]	Plasma OxLDL [1, 9] [U/ml]	Urine Markers: Oxalate [6] [mg/dL]	Serum Vitamin C Levels ([7]; 0 hrs (immediately prior to single oral dose of 1000 mg)) [mg/dL]	Serum Vitamin C Levels ([7]; single oral dose 1000 mg, 1 hr post-admin) [mg/dL]	Serum Vitamin C Levels ([7]; single oral dose 1000 mg, 2 hrs post-admin) [mg/dL]	Serum Vitamin C Levels ([7]; single oral dose 1000 mg, 4 hrs post-admin) [mg/dL]	Serum Vitamin C Levels ([7]; single oral dose 1000 mg, 6 hrs post-admin) [mg/dL]	Serum Vitamin C Levels ([7]; single oral dose 1000 mg, 24 hrs post-admin) [mg/dL]
31	7±1.4	O=C1O[C@H]([C@@H](O)CO)C(O)=C1O [AA, ascorbic acid]	0.89	75 ± 12	130 ± 5	9 ± 4	129.75 ± 26	12.75	117.00 ± 33										
		calcium ascorbate [CaA]	3.78	110 ± 10	137 ± 8	12 ± 4	189.17 ± 41	8.34	180.83 ± 43	39.75 ± 10.5	60.56 ± 5	57.67 ± 6	17.8 ± 2.6	0.50 ± 0.05	0.88 ± 0.10	1.12 ± 0.17	1.03 ± 0.13	1.0 ± 0.13	0.59 ± 0.09
